Where no end group is shown, it is not given here.
Key:
Format in all cases: cell-based
[1] = tested on: SK-OV-3 (human solid cancer cell line)
Excerpt: (§1) In order to confirm the anticancer activity of the analogues prepared by Example 1 on A549 (lung cancer cell line, ATCC, U.S.A.), A498 (kidney cancer cell line, Korean Cell Line Bank, Korea), HCT116 (colon carcinoma cell line, Korean Cell Line Bank, Korea), MKN45 (stomach cell line, Korean Cell Line Bank, Korea), NCI-H630 (liver cancer cell line, Korean Cell Line Bank, Korea), PC-3 (prostatic carcinoma cell line, Korean Cell Line Bank, Korea), SK-MEL-2 (skin cancer cell line, Korean Cell Line Bank, Korea) and SK-OV-3 (human solid cancer cell line, Korean Cell Line Bank, Korea), the standard microculture MTT method was performed with the procedure described in the literature (Angelina Quintero et al., J Pharm Pharmaceut Sci, Vol. 2, No. 3, pp 108-112, 1999; Ashtosh K. Pathak et al., J. Am Coll Nutr., Vol. 21, No. 5, pp 416-421, 2002). Each cell line was poured into 96 well microtiter plates and cultivated at 37° C. for 24 hrs. When the cell reached to exponential growth phase, the test sample was added to each plates and each cell was inoculated into the plates added with both of dissolved and non-dissolved DMSO to culture for 3 days. 50 μl of MTT (2 mg/ml) (M5655, SIGMA, U.S.A.) was added thereto and cultured for 3 hrs. The supernatant was removed and the wells were shaken weakly to dissolve formazan crystals. 150 μl of DMSO was added thereto. The non-treated well with cell was set to blank and the wells non-treated with drug were set to standard based on the cell viability. The UV absorbance was measured by microplate reader (SAFIRE, Tecan, Austria) to calculate the cell viability at 570 nm. The inhibition rate of cell growth was calculated by following Math FIG. 1. inhibition rate of cell growth (%)={1−(absorbance of treated cells/absorbance of non-treated cells)}×100 Math Figure 1 The IC value of each cell was calculated by the amount of drug causing to 50% reduction of the absorbance comparing with that of non-treated cells.

[2] = tested on: MKN45 (stomach cell line)
Excerpt: as §1

[3] = tested on: A549 (lung cancer cell line)
Excerpt: as §1

[4] = tested on: HCT116 (colon carcinoma cell line)
Excerpt: as §1

[5] = tested on: SK-MEL-2 (skin cancer cell line)
Excerpt: as §1

[6] = tested on: erythrocyte
Description: 3 ml of blood sample collected from healthy male was mixed with PBS (phosphate buffered saline, isotonic solution) with a ratio of 1:1 (v/v), centrifuged to remove buffy coat and blood plasma and washed with physiological saline solution three times to isolate pure erythrocyte. The erythrocyte was suspended in 20 ml of PBS and pre-incubated in water bath at 37° C. for 15 mins. […] of peptide solution was mixed with […] of erythrocyte solution in order to prepare various mixed solution containing various final concentrations of the peptides, i.e., 100, 50, […] and the solution was incubated in water bath at 37° C. for 15 mins. The supernatant was centrifuged with centrifuge and 100 ml of the supernatant was diluted with ImI of PBS to determine its absorbance at 550 nm. The percentage of hemolysis (%) was determined from the relative attenuation of the absorbance of sample compared with that of the suspension treated with 0.2% Triton X-100.

[7] = tested on: Shigella dysentariae; assay: Antimicrobial activity, MIC by standard broth microdilution; conditions: Gram negative
Description: (§2) Antimicrobial activity was determined by the standard broth microdilution method by measuring the MIC values against diverse microorganisms. In brief, Luria-Bertani medium was used as a broth medium. 30 μl of sample (2 mg/ml) prepared from Example 1 and 270 μl of fluid medium were added to lane 1 well of 96-well microtiter plates and to remaining lanes of the wells, only 150 μl of medium was added thereto. 150 μl of sample solution in lane 1 was mixed with lane 2 to prepare diluted solution (×2). With similar diluting method to the above described method, serial dilution was performed to prepare 150 μl of diluted drug solution (×2) to the extent that the final drug concentration reached to the range from 1.6 to 200 μg/ml in respective well. 25 μl of the cell culture being grown to 10^6-10^8 colony forming unit/ml in 3 ml of broth was added to each well and the micro-titer plate was incubated for overnight at 37° C.

[8] = tested on: Salmonella typhimurium; assay: as above; conditions: Gram negative
Description: as §2

[9] = tested on: Staphylococcus aureus; assay: as above; conditions: Gram-positive
Description: as §2

[10] = tested on: Pseudomonas aeruginosa; assay: as above; conditions: Gram negative
Description: as §2

[11] = tested on: Escherichia coli; assay: as above; conditions: Gram negative
Description: as §2

[12] = tested on: Bacillus subtilis; assay: as above; conditions: Gram-positive
Description: as §2

[13] = tested on: Micrococcus luteus; assay: as above; conditions: Gram-positive
Description: as §2

[14] = tested on: Staphylococcus epidermis; assay: as above; conditions: Gram-positive
Description: as §2

[15] = tested on: Klebsiella pneumoniae; assay: as above; conditions: Gram negative
Description: as §2

[16] = tested on: Proteus mirabilis; assay: as above; conditions: Gram negative
Description: as §2

Work on “FLWWLFKWAWK-NH2 [model 28, F-L-W-W-L-F-K-W-A-W-K]” yielded an IC50 [1] of 14.6 µM, an IC50 [2] of 13.8 µM and an IC50 [3] of 15.9 µM. For the same substance, the IC50 [4] was 14.8 µM and the IC50 [5] was 13.2 µM.

In the case of “FLGWLFKWASKVL-NH2 [W4,8-GGN5N13, F-L-G-W-L-F-K-W-A-S-K-V-L]”, the “hemolytic activity (in words)” value [6] is reported as “potent hemolytic activity”.

For “FLKWLFKWAKK-NH2 [model 26, F-L-K-W-L-F-K-W-A-K-K]”, the IC50 [1] was 12.6 µM, the IC50 [3] was 14.5 µM and the IC50 [4] was 14.8 µM. The “hemolytic activity (in words)” value [6] was “much less hemolysis than the others”.

In the case of “FLGWLFKWASK-NH2 (C-terminus assumed) [W4,8-GGN5N11]”, the Minimal inhibitory concentration [7] is reported as 12.5 µg/mL, the Minimal inhibitory concentration [8] is reported as >200 µg/mL and the Minimal inhibitory concentration [9] is reported as 1.6 µg/mL. For the same substance, the Minimal inhibitory concentration [10] was >200 µg/mL, the Minimal inhibitory concentration [11] was 50 µg/mL and the Minimal inhibitory concentration [12] was 3.2 µg/mL. For the same substance, the Minimal inhibitory concentration [13] was 3.2 µg/mL, the Minimal inhibitory concentration [14] was 3.2 µg/mL and the Minimal inhibitory concentration [15] was 50 µg/mL. For the same substance, the Minimal inhibitory concentration [16] was >200 µg/mL.

“FLGWLFKWAWK-NH2 [model 27, F-L-G-W-L-F-K-W-A-W-K]” gave an IC50 [5] of 14 µM.
